From patent publication US20250359555A1, “STREPTOMYCES VENEZUELAE FOR THE BIOLOGICAL CONTROL OF PLANT DISEASES” (UNIVERSITA' DEGLI STUDI DI MODENA E REGGIO EMILIA (80%), priority 2022, published 2025)

Experiments:
fennel var. Crono [1] = experiment: Field trial fennel var. Crono, emergence, germination and vigor (AQ2021); assay type: in vivo, Foeniculum vulgare; details: for average vigor index: scale 1-4 (Table 8)
Procedure: For the field trial description, experimental design, and the applied agronomic practices, see Example 10.
For this experiment, sowing was carried out with mechanical seeder. The first survey was carried out 14 days after the sowing, assessing the whole length of each plot: 1.5 m (width)×100 m (length) with four sowing rows per plot. The second survey was carried out one month after sowing and the third and last survey two months after sowing, assessing both number of emerged plants and vigor according to the assessment scale described in Table 8. The recorded data were subjected to the statistical analysis of the variance (one-way ANOVA). The results were compared to the post hoc Tukey's HDS test.

fennel var. Crono [2] = experiment: Commercial field trial fennel var. Crono, emergence and germination (AQ2020); assay type: in vivo, Foeniculum vulgare
Excerpt: In this experiment, the fennel var. Crono was used, in order to study the effect of Streptomyces sp. DLS 1568, applied as microbial coating agent, on the emergence and germination of the crop.
The test experimental design was organized at randomized blocks for the 4 treatment types, each in duplicate (replicate). In the experimental test carried out at a plot, the experimental parcels had the following dimensions: 1.5 m (width)×100 m (length) with four sowing rows per plot. The sowing was carried out with a mechanical seeder. During the experimental field trials, conducted according to the best agronomical practices, harmful bacteria and insects' infections were not observed, causing damages to the cultures during the experiment. Weeds were controlled according to the farms' integrated weed management.
The first survey was carried out 20 days after the sowing, assessing the whole length of each plots. The second survey was carried out 32 days after seed sowing and the third and last survey was done after one month from the second survey. The recorded data were subjected to the statistical analysis of the variance (one-way ANOVA). The results were compared to the post hoc Tukey's HDS test.

onion var. Elenka = experiment: Field trial onion var. Elenka, agronomic features (phenological development) (FC2020); assay type: in vivo, Allium cepa
Procedure: (§1) In this experiment, onion var. Elenka was tested. The test experimental design was organized at randomized blocks for the 4 treatment types, each in duplicate. In the extended test carried out at an experimental field with high natural pressure of fungal inoculum of Fusarium spp., the experimental plots had the following dimensions: 1.8 m (width)×25 m (length) with four sowing rows per parcel The sowing was performed with mechanical seeder (mod. SPX 2015-Bassi Seminatrici, IT) at the density of 600,000 onion seeds per hectare. The surveys were carried out on a length of 20 meters, in the medial part of each respective plot. The recorded data of disease severity were subjected to statistical analysis of the variance (one-way ANOVA). The results were compared to the post hoc Tukey's HDS test.
For the assay description, experimental design, agronomic practices, see Example 7. Before sowing, the fields were not treated with herbicides or fungicides. During the experimental field trial, carried out according to the best agronomical practices, harmful bacteria and insects' infections were not observed, causing damages to the cultures during the experiment. The weeds were managed according to the disciplinary regulations described in Cornell Vegetable Management Guidelines and Recommendations (Reiners et al., 2019). […]

Fusarium spp. [3] = experiment: Field trial onion var. Fundador, emergence and bio-control under natural Fusarium spp. inoculum pressure (FC2020); assay type: in vivo; details: first survey (18 days after the sowing), control 178.12
Procedure: as §1
For trial description, experimental design, agronomic practices, see Example 7. […]. The recorded data were subjected to statistical analysis of the variance (one-way ANOVA). The results were compared to the post hoc Tukey's HDS test.

Fusarium spp. [4] = experiment: Field trial onion var. Elenka, emergence and bio-control under natural Fusarium spp. inoculum pressure (FC2020); assay type: in vivo; details: for number of emerged seedlings: control 182.50; for number of emerged plants: fourth survey (97 days after the sowing)
Procedure: as §1
In the preparation phase before the sowing, the fields were not treated with herbicides or fungicides. During the experimental test, carried out following the agronomical good practices, harmful bacteria and insects' infections were not observed, causing damages to the cultures during the experiment. The weeds were controlled according to the disciplinary regulation described in Cornell Vegetable Management Guidelines and Recommendations (Reiners et al., 2019).
Samples of symptomatic material such as onion roots and bulbs were withdrawn during the cultural season for isolating Fusarium-like fungal colonies and the subsequent identification thereof and confirmation of the etiological agent, through a preliminary analysis of conidial identification at the microscope, followed by a molecular analysis. The molecular identification was carried out through the amplification of the conserved region ITS by polymerase chain reaction (PCR) according to White et al., 1990. The amplification products were then purified and sequenced at Bio-Fab Research s.r.l. (Rome, IT). The nucleotide sequences of ribosomal DNA of the conserved region ITS (Internal Transcription Spaces) were then analyzed through the program for the research of sequence similarity in the international DNA database BLAST (Basic Local Alignment Search Tool;//www.ncbi.nlm.nih.gov/BLAST).

[5] = first survey (18 days after the sowing)
[6] = second survey (42 days after the sowing)

N#Cc1c[nH]cc1-c1cccc2c1OC(F)(F)O2 [Fludioxonil, fludioxonil]
Number of emerged plants, Survey 1 Average value (fennel var. Crono [1]; AQ2021, 14 days after the sowing, control 313.00): 323.88 | Number of emerged plants, Survey 2 Average value (fennel var. Crono [1]; AQ2021, one month after sowing, after manual thinning, control 180.75): 205.00 | average vigor index (fennel var. Crono [1]; AQ2021, second survey, control 2.34): 2.49 | average vigor index (fennel var. Crono [1]; AQ2021, third survey, control 2.71): 3.01 | Number of emerged plants, Survey 3 Average value (fennel var. Crono [1]; AQ2021, two months after sowing, control 173.00): 186.63 | Number of emerged plants, Survey 1 Average value (fennel var. Crono [2]; AQ2020, 20 days after the sowing, control 339.50): 339.50 | Number of emerged plants, Survey 2 Average value (fennel var. Crono [2]; AQ2020, 32 days after sowing, after manual thinning, control 194.40): 217.30 | Number of emerged plants, Survey 3 Average value (fennel var. Crono [2]; AQ2020, one month from the second survey, control 187.00): 198.62 | plant height (onion var. Elenka; second survey): 10.11 cm | number of plants emerged (Fusarium spp. [3]): 210.12 | number of emerged seedlings (Fusarium spp. [4]; [5]): 175.63 | number of emerged plants (Fusarium spp. [4]): 72.75 | number of plants emerged (Fusarium spp. [4]; [6]): 147.00

O=[O+][O-] [Ozone]
number of leaves (onion var. Elenka; third survey): 4.69 | number of plants emerged (Fusarium spp. [3]): 185.87 | increase of the germinal emergence with respect to the control (Fusarium spp. [4]; [5]): 17% | increase of the germinal emergence with respect to the treatment with Streptomyces sp. SA51 (Fusarium spp. [4]; [5]): 26% | increase of the germinal emergence with respect to the treatment with fludioxonil (Fusarium spp. [4]; [5]): 22% | number of emerged seedlings (Fusarium spp. [4]; [5]): 214.63 | number of emerged plants (Fusarium spp. [4]): 119.17 | increase of number of emerged plants with respect to Streptomyces sp. SA51 (Fusarium spp. [4]; [6]): 51% | increase of number of emerged plants with respect to fludioxonil (Fusarium spp. [4]; [6]): 41% | number of plants emerged (Fusarium spp. [4]; [6]): 207.88
